{
  "source": "the CheMixHub ionic liquid set",
  "assay": "xn = mol fraction of the nth substance listed",
  "settings": "100 kPa",
  "note": "± gives the uncertainty stated by the source.",
  "data": [
    {"smiles": "CCCCCCCC[n+]1ccccc1.[Br-]", "note": "+ CC(C)C[C@H](N)C(=O)O + O", "values": [
      {"measurement": "electrical conductivity", "setting": "298.15 K, x2 = 0.001786, x1 = 0.006987", "value": "1.66 ± 0.1", "unit": "S/m"},
      {"measurement": "electrical conductivity", "setting": "298.15 K, x2 = 0.001787, x1 = 0.006277", "value": "1.56 ± 0.093", "unit": "S/m"},
      {"measurement": "electrical conductivity", "setting": "298.15 K, x2 = 0.001787, x1 = 0.006604", "value": "1.61 ± 0.096", "unit": "S/m"},
      {"measurement": "electrical conductivity", "setting": "298.15 K, x2 = 0.001788, x1 = 0.005918", "value": "1.51 ± 0.09", "unit": "S/m"},
      {"measurement": "electrical conductivity", "setting": "298.15 K, x2 = 0.001789, x1 = 0.005535", "value": "1.45 ± 0.087", "unit": "S/m"},
      {"measurement": "electrical conductivity", "setting": "298.15 K, x2 = 0.00179, x1 = 0.00464", "value": "1.31 ± 0.078", "unit": "S/m"},
      {"measurement": "electrical conductivity", "setting": "298.15 K, x2 = 0.00179, x1 = 0.005107", "value": "1.38 ± 0.083", "unit": "S/m"},
      {"measurement": "electrical conductivity", "setting": "298.15 K, x2 = 0.001791, x1 = 0.004127", "value": "1.23 ± 0.074", "unit": "S/m"},
      {"measurement": "electrical conductivity", "setting": "298.15 K, x2 = 0.001792, x1 = 0.003579", "value": "1.11 ± 0.067", "unit": "S/m"},
      {"measurement": "electrical conductivity", "setting": "298.15 K, x2 = 0.001793, x1 = 0.002934", "value": "0.956 ± 0.057", "unit": "S/m"},
      {"measurement": "electrical conductivity", "setting": "298.15 K, x2 = 0.001795, x1 = 0.001935", "value": "0.69 ± 0.042", "unit": "S/m"},
      {"measurement": "electrical conductivity", "setting": "298.15 K, x2 = 0.001795, x1 = 0.002302", "value": "0.791 ± 0.048", "unit": "S/m"},
      {"measurement": "electrical conductivity", "setting": "298.15 K, x2 = 0.001796, x1 = 0.001485", "value": "0.558 ± 0.034", "unit": "S/m"},
      {"measurement": "electrical conductivity", "setting": "298.15 K, x2 = 0.001797, x1 = 0.0009595", "value": "0.394 ± 0.024", "unit": "S/m"},
      {"measurement": "electrical conductivity", "setting": "303.15 K, x2 = 0.0008942, x1 = 0.006659", "value": "1.8 ± 0.11", "unit": "S/m"},
      {"measurement": "electrical conductivity", "setting": "303.15 K, x2 = 0.0008943, x1 = 0.006555", "value": "1.79 ± 0.11", "unit": "S/m"},
      {"measurement": "electrical conductivity", "setting": "303.15 K, x2 = 0.0008945, x1 = 0.006292", "value": "1.76 ± 0.1", "unit": "S/m"},
      {"measurement": "electrical conductivity", "setting": "303.15 K, x2 = 0.0008949, x1 = 0.005925", "value": "1.71 ± 0.1", "unit": "S/m"},
      {"measurement": "electrical conductivity", "setting": "303.15 K, x2 = 0.0008952, x1 = 0.005533", "value": "1.65 ± 0.099", "unit": "S/m"},
      {"measurement": "electrical conductivity", "setting": "303.15 K, x2 = 0.0008956, x1 = 0.005102", "value": "1.58 ± 0.095", "unit": "S/m"},
      {"measurement": "electrical conductivity", "setting": "303.15 K, x2 = 0.000896, x1 = 0.004627", "value": "1.5 ± 0.09", "unit": "S/m"},
      {"measurement": "electrical conductivity", "setting": "303.15 K, x2 = 0.0008965, x1 = 0.00412", "value": "1.4 ± 0.084", "unit": "S/m"},
      {"measurement": "electrical conductivity", "setting": "303.15 K, x2 = 0.000897, x1 = 0.003563", "value": "1.26 ± 0.076", "unit": "S/m"},
      {"measurement": "electrical conductivity", "setting": "303.15 K, x2 = 0.0008975, x1 = 0.002936", "value": "1.1 ± 0.066", "unit": "S/m"},
      {"measurement": "electrical conductivity", "setting": "303.15 K, x2 = 0.0008982, x1 = 0.002246", "value": "0.893 ± 0.054", "unit": "S/m"},
      {"measurement": "electrical conductivity", "setting": "303.15 K, x2 = 0.0008986, x1 = 0.001776", "value": "0.741 ± 0.044", "unit": "S/m"},
      {"measurement": "electrical conductivity", "setting": "303.15 K, x2 = 0.000899, x1 = 0.001323", "value": "0.582 ± 0.035", "unit": "S/m"},
      {"measurement": "electrical conductivity", "setting": "303.15 K, x2 = 0.0008994, x1 = 0.0008492", "value": "0.411 ± 0.025", "unit": "S/m"},
      {"measurement": "electrical conductivity", "setting": "303.15 K, x2 = 0.001786, x1 = 0.006976", "value": "1.88 ± 0.11", "unit": "S/m"},
      {"measurement": "electrical conductivity", "setting": "303.15 K, x2 = 0.001787, x1 = 0.006268", "value": "1.76 ± 0.1", "unit": "S/m"},
      {"measurement": "electrical conductivity", "setting": "303.15 K, x2 = 0.001787, x1 = 0.006595", "value": "1.81 ± 0.11", "unit": "S/m"},
      {"measurement": "electrical conductivity", "setting": "303.15 K, x2 = 0.001788, x1 = 0.005909", "value": "1.69 ± 0.1", "unit": "S/m"},
      {"measurement": "electrical conductivity", "setting": "303.15 K, x2 = 0.001789, x1 = 0.005527", "value": "1.63 ± 0.098", "unit": "S/m"},
      {"measurement": "electrical conductivity", "setting": "303.15 K, x2 = 0.00179, x1 = 0.004633", "value": "1.47 ± 0.088", "unit": "S/m"},
      {"measurement": "electrical conductivity", "setting": "303.15 K, x2 = 0.00179, x1 = 0.0051", "value": "1.56 ± 0.093", "unit": "S/m"},
      {"measurement": "electrical conductivity", "setting": "303.15 K, x2 = 0.001791, x1 = 0.00412", "value": "1.37 ± 0.082", "unit": "S/m"},
      {"measurement": "electrical conductivity", "setting": "303.15 K, x2 = 0.001792, x1 = 0.003575", "value": "1.24 ± 0.074", "unit": "S/m"},
      {"measurement": "electrical conductivity", "setting": "303.15 K, x2 = 0.001793, x1 = 0.002931", "value": "1.07 ± 0.064", "unit": "S/m"},
      {"measurement": "electrical conductivity", "setting": "303.15 K, x2 = 0.001795, x1 = 0.001932", "value": "0.767 ± 0.046", "unit": "S/m"},
      {"measurement": "electrical conductivity", "setting": "303.15 K, x2 = 0.001795, x1 = 0.002298", "value": "0.88 ± 0.053", "unit": "S/m"},
      {"measurement": "electrical conductivity", "setting": "303.15 K, x2 = 0.001796, x1 = 0.001483", "value": "0.619 ± 0.037", "unit": "S/m"},
      {"measurement": "electrical conductivity", "setting": "303.15 K, x2 = 0.001797, x1 = 0.0009576", "value": "0.441 ± 0.027", "unit": "S/m"},
      {"measurement": "electrical conductivity", "setting": "308.15 K, x2 = 0.0008942, x1 = 0.00665", "value": "2.05 ± 0.12", "unit": "S/m"},
      {"measurement": "electrical conductivity", "setting": "308.15 K, x2 = 0.0008943, x1 = 0.006544", "value": "2.03 ± 0.12", "unit": "S/m"},
      {"measurement": "electrical conductivity", "setting": "308.15 K, x2 = 0.0008945, x1 = 0.006283", "value": "1.98 ± 0.12", "unit": "S/m"},
      {"measurement": "electrical conductivity", "setting": "308.15 K, x2 = 0.0008949, x1 = 0.005916", "value": "1.91 ± 0.12", "unit": "S/m"},
      {"measurement": "electrical conductivity", "setting": "308.15 K, x2 = 0.0008952, x1 = 0.005524", "value": "1.83 ± 0.11", "unit": "S/m"},
      {"measurement": "electrical conductivity", "setting": "308.15 K, x2 = 0.0008956, x1 = 0.005093", "value": "1.76 ± 0.1", "unit": "S/m"},
      {"measurement": "electrical conductivity", "setting": "308.15 K, x2 = 0.000896, x1 = 0.00462", "value": "1.66 ± 0.099", "unit": "S/m"},
      {"measurement": "electrical conductivity", "setting": "308.15 K, x2 = 0.0008965, x1 = 0.004115", "value": "1.53 ± 0.092", "unit": "S/m"},
      {"measurement": "electrical conductivity", "setting": "308.15 K, x2 = 0.000897, x1 = 0.003557", "value": "1.39 ± 0.084", "unit": "S/m"},
      {"measurement": "electrical conductivity", "setting": "308.15 K, x2 = 0.0008975, x1 = 0.002933", "value": "1.2 ± 0.072", "unit": "S/m"},
      {"measurement": "electrical conductivity", "setting": "308.15 K, x2 = 0.0008982, x1 = 0.002244", "value": "0.971 ± 0.058", "unit": "S/m"},
      {"measurement": "electrical conductivity", "setting": "308.15 K, x2 = 0.0008986, x1 = 0.001775", "value": "0.809 ± 0.049", "unit": "S/m"},
      {"measurement": "electrical conductivity", "setting": "308.15 K, x2 = 0.000899, x1 = 0.001321", "value": "0.643 ± 0.039", "unit": "S/m"},
      {"measurement": "electrical conductivity", "setting": "308.15 K, x2 = 0.0008994, x1 = 0.0008474", "value": "0.461 ± 0.028", "unit": "S/m"},
      {"measurement": "electrical conductivity", "setting": "308.15 K, x2 = 0.001786, x1 = 0.006965", "value": "2.11 ± 0.13", "unit": "S/m"},
      {"measurement": "electrical conductivity", "setting": "308.15 K, x2 = 0.001787, x1 = 0.006586", "value": "2.04 ± 0.12", "unit": "S/m"},
      {"measurement": "electrical conductivity", "setting": "308.15 K, x2 = 0.001788, x1 = 0.0059", "value": "1.9 ± 0.11", "unit": "S/m"},
      {"measurement": "electrical conductivity", "setting": "308.15 K, x2 = 0.001788, x1 = 0.006259", "value": "1.97 ± 0.12", "unit": "S/m"},
      {"measurement": "electrical conductivity", "setting": "308.15 K, x2 = 0.001789, x1 = 0.005518", "value": "1.82 ± 0.11", "unit": "S/m"},
      {"measurement": "electrical conductivity", "setting": "308.15 K, x2 = 0.00179, x1 = 0.004626", "value": "1.64 ± 0.098", "unit": "S/m"},
      {"measurement": "electrical conductivity", "setting": "308.15 K, x2 = 0.00179, x1 = 0.005091", "value": "1.73 ± 0.1", "unit": "S/m"},
      {"measurement": "electrical conductivity", "setting": "308.15 K, x2 = 0.001791, x1 = 0.004114", "value": "1.51 ± 0.091", "unit": "S/m"},
      {"measurement": "electrical conductivity", "setting": "308.15 K, x2 = 0.001792, x1 = 0.003568", "value": "1.37 ± 0.082", "unit": "S/m"},
      {"measurement": "electrical conductivity", "setting": "308.15 K, x2 = 0.001793, x1 = 0.002925", "value": "1.17 ± 0.07", "unit": "S/m"},
      {"measurement": "electrical conductivity", "setting": "308.15 K, x2 = 0.001795, x1 = 0.00193", "value": "0.836 ± 0.05", "unit": "S/m"},
      {"measurement": "electrical conductivity", "setting": "308.15 K, x2 = 0.001795, x1 = 0.002295", "value": "0.962 ± 0.058", "unit": "S/m"},
      {"measurement": "electrical conductivity", "setting": "308.15 K, x2 = 0.001796, x1 = 0.001481", "value": "0.683 ± 0.041", "unit": "S/m"},
      {"measurement": "electrical conductivity", "setting": "308.15 K, x2 = 0.001797, x1 = 0.0009558", "value": "0.483 ± 0.029", "unit": "S/m"}
    ]}
  ]
}
